Test results as given in patent US11696903B2, “Compounds and methods for scavenging dicarbonyl electrophiles” (VANDERBILT UNIVERSITY, priority 2019, dated 2023).
Entries after “also recorded” stand apart in the source; their conditions may differ.

Experiments:
[1] = test system: Mongolian gerbils infected with Hp 7.13; experiment: Gastric cancer development in Mongolian gerbils infected with Hp 7.13; assay type: in vivo; conditions: gerbils infected with Hp 7.13, EtSA 0.75% in water
Description: (§1) As discussed further in the Examples, the human gastric epithelial cell line AGS was infected with Hp PMSS1±10 mM EtSA. FVB/N insulin-gastrin (INS-GAS) mice and Mongolian gerbils were infected for 8 wk with Hp PMSS1 and 7.13, respectively; EtSA (0.75% in water) was given to animals beginning one wk post-infection. Lys-LG adducts, a marker of electrophile reactions, and EtSA were quantified by LC/EST/MS/MS. Histology was analyzed on H&E staining. DNA damage was evaluated by pH2AX staining. Hp colonization was quantified by culture. Mucosal immune responses were determined by RNA profiling and by Luminex assay. Mice were imaged using PET/CT with ^18F-FDG (inflammation marker) and ^18F—NaF (tumor marker).

[2] = test system: Lysyl-LG adducts in AGS cells; experiment: Lysyl-LG adducts in AGS cells infected with H. pylori PMSS1; assay type: cell-based, human
Description: FIGS. 15A, 15B, and 15C are graphs showing C57BL/6 (A) or INS-GAS mice (B) were infected for 8 weeks with H. pylori PMSS1. Lysyl-LG adducts were measured in the gastric tissues by LC/ESI/MS/MS. *P<0.05. (C) Lysyl-LG adducts concentration was determined in AGS cells infected (plain bars) or not (open bars) with H. pylori PMSS1 for 24 h, in the presence or absence of EtSA. *P<0.05 vs. uninfected cells. § P<0.05 vs. infected cells without EtSA.
as §1, with “As discussed further in the Examples, the human gastric epithelial cell line AGS was infected with Hp PMSS1±10 mM EtSA.” left out
To further determine whether ethylsalicylamine (EtSA) prevents the formation of bifunctional electrophiles during H. pylori infection, the […] were treated or not with EtSA 30 min prior to the infection.

[3] = test system: DNA damage (pH2AX); experiment: DNA damage by pH2AX staining in infected mice; assay type: in vivo; conditions: infected mice with EtSA treatment; p<0.05
Description: as §1

[4] = test system: mucosal immune responses; experiment: Gastritis and mucosal cytokines/chemokines in infected INS-GAS mice; assay type: in vivo; conditions: EtSA
Description: as §1

[5] = test system: H. pylori; experiment: Hp gastric colonization quantified by culture; assay type: in vivo, Helicobacter pylori; conditions: INS-GAS mice, EtSA treatment
Description: as §1
The effect of a scavenger of levuglandins and other dicarbonyls was investigated in transgenic INS-GAS mice, which have high circulating gastrin levels and develop atrophic gastritis, and dysplasia and carcinoma with H. pylori infection. Mice were infected with H. pylori, and then EtSA was administered in drinking water, starting 7 days after infection. After 8 weeks, EtSA levels were measured in the gastric tissues of uninfected and infected mice receiving this compound (FIG. 16A). […] There was no dysplasia or carcinoma in uninfected mice (FIG. 16D).

[6] = test system: C57BL/6 mice in the AOM-DSS model; experiment: AOM-DSS model of colitis-associated carcinoma (tumors, dysplasia, body weight); assay type: in vivo
Description: FIGS. 5A, 5B, 5C, 5D, 5E, 5F, and 5G show mice (n=10-12/group)±AOM-DSS±1.5 mg/ml EtHOBA. (A) Body weight; ″P<0.05 compared to AOM-DSS-treated mice. (B) Tumor number. (C) Average tumor size per mouse. (D) Tumor burden. (E) Number of adenomas. (F) Frequency of diagnoses; ND, no dysplasia. (G) H&E staining; each arrow depicts a tumor. Scale bar, 50 μm.
Animals receive an i.p. injection of the carcinogen AOM (12.5 mg/kg) followed by 3 cycles of 4% DSS, each for 4 days, over a total of 56-77 days. To directly determine the role of electrophiles in colon carcinogenesis, the present inventors tested the effect of EtHOBA in C57BL/6 mice in the AOM-DSS model. Mice were given 1.5 mg/ml EtHOBA one day after AOM and continued throughout the experiments, except during the DSS cycles, to avoid mixing. The present inventors assessed electrophiles in colons of mice treated with AOM-DSS, by IHC for electrophile protein adducts. […] In total, without the scavenger treatment, 25% of mice had HGD and the remaining 75% had L GD; in contrast, in those receiving EtHOBA, 20% had no dysplasia, none had HGD, and 80% had only L GD, a significant overall difference in diagnoses (FIGS. 5F-G).

[7] = AOM-DSS, 1.5 mg/ml EtHOBA vs AOM-DSS alone

How did the “frequency of gastric cancer development” value [1] turn out when `CCc1ccc(O)c(CN)c1` [EtHOBA, 5-ethyl-2-hydroxybenzylamine] was run?
Its value is “reduced”.

What about the Lys-LG adduct levels ([2]; AGS cells infected with Hp PMSS1 ± 10 mM EtSA) of the same compound?
Its Lys-LG adduct levels is “inhibited”.

What about the lysyl-LG adduct concentration ([2]; H. pylori-infected AGS cells, 24 h, 10 μM EtSA) of the same compound?
Its lysyl-LG adduct concentration is “completely attenuated”.

What about the “decrease of DNA damage” value [3] of the same compound?
Its value is 71%.

What about the histologic gastritis [4] of the same compound?
Its histologic gastritis is “not affected”.

And the “tissue cytokines and chemokines” value [4]?
Its value is “not affected”.

What about the Hp colonization [5] of the same compound?
Its Hp colonization is “not reduced; also recorded: not affected”.

And the “mice with high grade dysplasia (HGD)” value ([6]; AOM-DSS + EtHOBA, without scavenger 25%)?
The value was “none”.

And the “mice with only low-grade dysplasia (LGD)” value ([6]; AOM-DSS + EtHOBA, without scavenger 75%)?
The value was 80%.

What about the “mice with no dysplasia” value ([6]; AOM-DSS + EtHOBA, without scavenger all mice had dysplasia) of the same compound?
The value was 20%.

And the Tumor number [6, 7]?
Its Tumor number is “significantly less tumors”.

What about the “body weight loss at each cycle of DSS” value [6, 7] of the same compound?
The value was “less weight loss”.

And the “number of histologic adenomas” value [6, 7]?
The value was “reduced number”.

What about the total tumor burden [6, 7] of the same compound?
Its total tumor burden is “lower”.

What about the tumor size [6, 7] of the same compound?
The tumor size was “lower tumor size”.

And the “body weight in control mice” value ([6]; control mice treated for 56 days, 1.5 mg/ml EtHOBA)?
Its value is “no change in body weight”.
